One data set relates to BHK-21. Kind of data set: Cytotoxicity against hamster BHK-21 cells assessed as reduction in cell viability at 10 uM measured after 3 days. The format is toxicity, cell-based, Mesocricetus auratus. The note with it: bhk-21, 72 h, time 3 day.
For another data set, the system named is Human coronavirus OC43. Kind of data set: Antiviral activity against HCoV-OC43 infected in hamster BHK-21 cells assessed as inhibition of viral infectivity per ml at 10 uM measured after 3 days. The note with it: time 3 day. The format is functional.

Some results are limits rather than exact numbers.

`Cc1ccc2oc3cc(O)cc(O)c3c(=O)c2c1`: the Activity entry in the data set with BHK-21 is listed as “>= 85%”. The “log(activity)” value in the data set with Human coronavirus OC43 came out at 2.79.

For `COc1ccc2c(=O)c3c(O)cc(O)cc3oc2c1`, in the data set on BHK-21, the Activity entry was “>= 85%”. For the same compound, the “log(activity)” value in the data set with Human coronavirus OC43 came to 2.67.

Regarding `O=c1c2ccccc2oc2cc(O)cc(O)c12`, the Activity result in the data set on BHK-21 is reported as “>= 85%”. Further, the “log(activity)” value in the data set on Human coronavirus OC43 worked out at 2.5.

On to `Cc1ccc2c(=O)c3c(O)cc(O)cc3oc2c1`, for which the Activity entry in the data set with BHK-21 was “>= 85%”. The “log(activity)” value in the data set with Human coronavirus OC43 is 2.42.

For the compound `COc1ccc2oc3cc(O)cc(O)c3c(=O)c2c1`, the Activity entry with BHK-21 is on record as “>= 85%”. Also, the “log(activity)” value with Human coronavirus OC43 was 2.67.

Regarding `O=c1c2ccc(O)cc2oc2cccc(O)c12`, the Activity entry in the data set on BHK-21 is “>= 85%”. Also, in the data set with Human coronavirus OC43, the “log(activity)” value is given as 2.2.

Consider `O=c1c2c(O)cccc2oc2cc(O)cc(O)c12`, for which the Activity entry in the data set on BHK-21 is reported as “>= 85%”. The “log(activity)” value with Human coronavirus OC43 came to 2.

Take `O=C(c1ccccc1O)c1ccc(O)cc1O`: in the data set with BHK-21, the Activity entry is given as “>= 85%”. In the data set with Human coronavirus OC43, the “log(activity)” value turned out to be 2.45.

Regarding `O=c1c2cc(F)ccc2oc2cc(O)cc(O)c12`, the Activity result in the data set with BHK-21 is “>= 85%”. Further, the “log(activity)” value in the data set with Human coronavirus OC43 amounted to 2.38.

For the compound `O=C(c1ccccc1O)c1ccc(O)c(O)c1O`, in the data set on BHK-21, the Activity entry is reported as “>= 85%”. In addition, in the data set on Human coronavirus OC43, the “log(activity)” value came out at 1.95.

For `O=c1c2ccccc2oc2c(O)c(O)ccc12` [3,4-DIHYDROXYXANTHONE], the Activity entry in the data set with BHK-21 was “>= 85%”. Also, the “log(activity)” value in the data set with Human coronavirus OC43 turned out to be 1.95.

Turning to `O=c1c2cc(O)c(O)cc2oc2cc(O)c([C@@H]3O[C@H](CO)[C@@H](O)[C@H](O)[C@H]3O)c(O)c12` [MANGIFERIN], the Activity entry in the data set on BHK-21 was “>= 85%”. In the data set with Human coronavirus OC43, the “log(activity)” value was 3.

Consider `O=c1c2ccccc2oc2ccccc12` [XANTHONE], for which, in the data set on BHK-21, the Activity result is given as “>= 85%”. The “log(activity)” value in the data set with Human coronavirus OC43 is reported as 2.04.

For the origin of these results see ChEMBL document CHEMBL5252601, “Hydroxy-xanthones as promising antiviral agents: Synthesis and biological evaluation against human coronavirus OC43” (Bioorg Med Chem Lett, 2023).
